Earlier results as cited in patent US20240325362A1, “NOVEL THERAPEUTIC METHOD FOR ENHANCING MITOCHONDRIAL FUNCTION, TREATING MITOCHONDRIAL DISEASES THEREBY, AND COMPOUNDS USED THEREIN” (STANDIGM INC., priority 2020, published 2024).

Test system: muscle mitochondrial function
Conditions: clinical study, as an NAD+ precursor

**Q.** Which “effect on muscle mitochondrial function” value does the source give for Cc1cnc(C(=O)O)c[n+]1[O-] [acipimox] here?
**A.** beneficial effect on muscle mitochondrial function
